Source: US7968526B2, “Antisense oligonucleotides directed to ribonucleotide reductase R2 and uses thereof in the treatment of cancer” (Lorus Therapeutics Inc., priority 2003, dated 2011)

Tested on: Hela S3 human cervix epitheloid carcinoma cells
Experiment: Hela S3 hydroxyurea resistant cervix carcinoma xenograft in SCID mice
Format: in vivo, human cells in mice
Protocol: BxPC-3 is a gemcitabine resistant call line. […] Gemcitabine was administered intravenously every three days at a dose of 100 mg/kg. Antitumour activities were estimated by the inhibition of tumour volume, which was measured with caliper. Each point represents mean tumour volume calculated from 10 animals per experimental group. […] Hela S3 is a hydroxyurea resistant cell line. […] Hydroxyurea was administered intraperitoneally every day at a dose of 250 mg/kg for 10 days. Cisplatin was administered intravenously once a week for three weeks at a dose of 4 mg/kg. Antitumour activities were estimated by the inhibition of tumour volume, which was measured with caliper. Each point represents mean tumour volume calculated from 10 animals per experimental group. […] Cisplatin was administered intravenously once a week for three weeks at a dose of 4 mg/kg. Taxol was administered intravenously once a week for three weeks at a dose of 10 mg/kg. Antitumour activities were estimated by the inhibition of tumour volume, which was measured with caliper. Each point represents mean tumour volume calculated from 10 animals per experimental group. […] Taxol was administered i.p. once a week at a dose of 10 mg/kg. Antitumour activities were estimated by the inhibition of tumour volume (FIG. 12A), which was measured with calipers. Each point represents mean tumour volume calculated from 10 animals per experimental group. Animals were sacrificed and tumour weights taken at the end of the study (FIG. 12C). […] The effects of combined treatment were greater than either treatment alone. […] Cisplatin was administered intravenously once a week for four weeks at a dose of 4 mg/kg. Taxol was administered intravenously once a week for four weeks at a dose of 20 mg/kg. Antitumour activities were estimated by the inhibition of tumour volume, which was measured with caliper. Each point represents mean tumour volume calculated from 9-10 animals per experimental group. […] Cisplatin was administered intravenously once a week for four weeks at a dose of 4 mg/kg. Antitumour activities were estimated by the inhibition of tumour volume, which was measured with caliper. Each point represents mean tumour volume calculated from 10 animals per experimental group. At the end of the study the animals were sacrificed and tumours weighed. […] Taxol was administered i.p. once a week at a dose of 10 mg/kg. Anti-tumour activity was estimated by the inhibition of tumour volume, which was measured with caliper. Each point represents mean tumour volume calculated from 10 animals per experimental group. In addition animals were sacrificed and tumour weights taken at the end of the study. […] CPT-11 was administered i.p. for 5 days at a dose of 20 mg/kg/day. Antitumour activities were estimated by the inhibition of tumour volume, which was measured with caliper. Each point represents mean tumour volume calculated from 10 animals per experimental group. Tumour weights were measured after animals were sacrificed at the end of the treatment. These cells are not resistant to CPT-11 which was used as a positive control.

## NC(=O)NO [Hydroxyurea (HU), Hydroxyurea, reference compound]
Hela S3 (cervix), hydroxyurea resistant, SCID, SEQ ID NO:1 10 mg/kg i.v. every other day 6 times, Hydroxyurea 250 mg/kg i.p. daily 10 days, Cisplatin 4 mg/kg i.v. weekly x3
  Tumour weight as % of saline control: 92%
Hela S3 hydroxyurea resistant, SCID mice, SEQ ID NO:1 10 mg/kg i.v. every other day, Hydroxyurea 250 mg/kg i.p. daily, Cisplatin 4 mg/kg i.v. weekly
  Antitumour effect (tumour volume, FIG. 10): ineffective against Hydroxyurea-resistant tumour
